What was measured:
FAAH [1] = molecular target: T1, FAAH (Homo sapiens, UniProt O00519); assay: In vitro FAAH inhibitory activity using U-937 microsomal fraction (AAMCA substrate, fluorescence); assay type: biochemical; conditions: 6 μg/well, 120 min incubation at room temperature, read-out: FAAH Inhibitory Activity IC50 U-937 microsome
T1 construct: the U-937 microsomal fraction (final concentration of 6 μg/well) prepared in (1); endogenous in cells; host or cells: U-937 cells (microsomal fraction)
T1 sequence (O00519 1-579): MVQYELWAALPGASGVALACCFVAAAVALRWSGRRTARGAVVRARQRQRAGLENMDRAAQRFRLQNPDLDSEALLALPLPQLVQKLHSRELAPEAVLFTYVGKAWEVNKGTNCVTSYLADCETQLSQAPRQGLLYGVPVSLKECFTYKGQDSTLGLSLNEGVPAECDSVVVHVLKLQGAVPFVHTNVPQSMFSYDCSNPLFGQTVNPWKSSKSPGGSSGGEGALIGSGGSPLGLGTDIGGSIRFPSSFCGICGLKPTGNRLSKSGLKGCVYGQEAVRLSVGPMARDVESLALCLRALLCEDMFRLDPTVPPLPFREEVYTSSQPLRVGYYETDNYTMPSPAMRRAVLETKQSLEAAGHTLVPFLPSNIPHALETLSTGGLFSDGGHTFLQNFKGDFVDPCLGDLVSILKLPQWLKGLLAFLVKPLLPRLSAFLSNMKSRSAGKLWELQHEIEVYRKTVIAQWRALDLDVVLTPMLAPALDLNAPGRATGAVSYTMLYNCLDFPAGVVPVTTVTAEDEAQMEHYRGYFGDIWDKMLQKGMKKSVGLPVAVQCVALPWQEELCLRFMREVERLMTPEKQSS
Experimental: The cultured U-937 cells were harvested, and 0.33-fold volume of buffer solution (50 mmol/L HEPES-NaOH (pH 7.4), 1 mmol/L EDTA, Complete EDTA-free (Roche Diagnostics)) was added to the cells, which was suspended and homogenized. After ultrasonication, the cells were further homogenized and centrifuged (600 g, 10 mins., 4° C.) to collect the supernatant. The supernatant collected was again centrifuged (12000 g, 20 mins., 4° C.), and the supernatant was ultracentrifuged (100000 g, 60 mins., 4° C.) to collect the precipitates. The precipitates were suspended in a buffer solution (50 mmol/L HEPES-NaOH (pH 7.4), 1 mmol/L EDTA) of 5-fold volume with respect to the wet weight of the precipitates to quantify the protein level with the BCA Protein Assay (PIERCE).
(§1) In a 384 well plate (Corning), were added the dilutions of compounds to be tested in various concentrations with 30 μL of a buffer solution (50 mmol/L HEPES (pH 7.4), 1 mmol/L EDTA, 0.1% bovine serum albumin) and the U-937 microsomal fraction (final concentration of 6 μg/well) prepared in (1) or the rat brain microsomal fraction (final concentration of 4 μg/well) prepared in (2), followed by preincubation for 5 minutes at room temperature. AAMCA (SIGMA, (final concentration of 4 mmol/L) as a substrate was added thereto, and the U-937 microsomal fraction was incubated for 120 minutes and the rat brain microsomal fraction for 30 minutes, at room temperature. Before and after the incubation, fluorescence counts were measured using EnVision 2000 (Perkin Elmer) at an excitation wavelength of 355 nm with an emission wavelength of 460 nm to calculate the difference. The count of the well added with the solvent in place of the compound tested and the count of the well added with no microsome were made 0% and 100%, respectively, and the inhibitory activity of each compound tested was determined.
(§2) The FAAH inhibitory activity of the test compound was expressed by IC50 value. The compound of the present invention showing the IC50 value smaller than 0.1 μmol/L, the compound showing the IC50 value not smaller than 0.1 μmol/L and smaller than 1 μmol/L and the compound showing the IC50 value not smaller than 1 μmol/L were designated as +++, ++ and +, respectively, which are shown in TABLE 1.

FAAH [2] = molecular target: T2, FAAH (Rattus norvegicus, UniProt P97612); assay: In vitro FAAH inhibitory activity using rat brain microsomal fraction (AAMCA substrate, fluorescence); assay type: biochemical; conditions: 4 μg/well, 30 min incubation at room temperature, read-out: FAAH Inhibitory Activity IC50 Rat brain microsome
T2 construct: the rat brain microsomal fraction (final concentration of 4 μg/well) prepared in (2); from tissue; host or cells: brain of male Sprague-Dawley rats (microsomal fraction)
T2 sequence (P97612 1-579): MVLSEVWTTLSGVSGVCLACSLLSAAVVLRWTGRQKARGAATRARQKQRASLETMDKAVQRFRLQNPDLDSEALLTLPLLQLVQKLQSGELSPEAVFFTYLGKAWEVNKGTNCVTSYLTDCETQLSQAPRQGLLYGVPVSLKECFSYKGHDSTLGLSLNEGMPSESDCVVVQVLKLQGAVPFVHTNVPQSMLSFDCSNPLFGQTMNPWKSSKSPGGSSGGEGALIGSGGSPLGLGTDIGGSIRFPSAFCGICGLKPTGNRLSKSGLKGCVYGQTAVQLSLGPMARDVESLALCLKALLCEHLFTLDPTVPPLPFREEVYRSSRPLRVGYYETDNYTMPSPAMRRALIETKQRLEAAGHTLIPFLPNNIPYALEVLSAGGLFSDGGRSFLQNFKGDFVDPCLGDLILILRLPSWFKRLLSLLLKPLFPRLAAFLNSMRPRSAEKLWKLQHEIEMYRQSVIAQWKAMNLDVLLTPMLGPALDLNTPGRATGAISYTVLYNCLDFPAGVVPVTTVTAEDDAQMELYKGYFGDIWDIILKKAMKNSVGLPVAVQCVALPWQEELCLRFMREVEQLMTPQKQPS
Experimental: Male Sprague-Dawley (SD) rats of 10 weeks old were sacrificed by decapitation and the brains were removed. To the brains was added a buffer solution (50 mmol/L HEPES (pH 8.0), 1 mmol/L EDTA, 0.32 mol/L sucrose, Complete EDTA-free (Roche Diagnostics)) of 5-fold volume with respect to the brain wet weight, which was homogenized in a Potter homogenizer. The homogenate was centrifuged (9000 g, 10 mins., 4° C.) to collect the supernatant. The supernatant was further ultracentrifuged (105000 g, 60 mins., 4° C.) to collect the precipitates. The precipitates were suspended in a buffer solution (50 mmol/L HEPES (pH 8.0), 1 mmol/L EDTA) of ¼ volume with respect to the wet weight of the precipitates to quantify the protein level with the BCA Protein Assay (PIERCE).
as §1, §2

Row | IC50 (FAAH [1]) | IC50 (FAAH [2]) | Molecule
1 | < 100 nM | < 100 nM | O=C(Nc1cnccn1)N1CCN(C2CCOc3cc(C(F)(F)F)ccc32)CC1 (centres unmarked) [Example 52, N-(Pyrazin-2-yl)-4-[7-(trifluoromethyl)-3,4-dihydro-2H-chromen-4-yl]piperazine-1-carboxamide]
2 | 100 to 1000 nM | 100 to 1000 nM | O=C(Nc1cccnn1)N1CCN(C2CCCOc3cc(C(F)(F)F)ccc32)CC1 (centres unmarked) [Example 10, N-Pyridazin-3-yl-4-[8-(trifluoromethyl)-2,3,4,5-tetrahydrobenz-1-oxepin-5-yl]piperazine-1-carboxamide]
3 | < 100 nM | 100 to 1000 nM | Cc1ccc(NC(=O)N2CCN(C3CCOc4cc(C(F)(F)F)ccc43)CC2)cn1 (centres unmarked) [Example 18, N-(6-Methyl-pyridine-3-yl)-4-[7-(trifluoromethyl)-3,4-dihydro-2H-1-benzopyran-4-yl]piperazine-1-carboxamide]
4 | 100 to 1000 nM | > 1000 nM | O=C(Nc1ccccc1)N1CCC(c2noc3cc(F)ccc23)CC1 [Example 1, N-Phenyl-4-(6-fluoro-1,2-benzisoxazo-3-yl)piperidine-1-carboxamide]
5 | < 100 nM | < 100 nM | O=C(Nc1cccnc1)N1CCN(C2CCOc3c2ccc(F)c3F)CC1 (centres unmarked) [Example 35, 4-(7,8-Difluoro-3,4-dihydro-2H-chromen-4-yl)-N-(pyridine-3-yl)piperazine-1-carboxamide]
6 | 100 to 1000 nM | 100 to 1000 nM | O=C(Nc1cccnn1)N1CCN(C2CCOc3ccc(Oc4ccc(C(F)(F)F)cn4)cc32)CC1 (centres unmarked) [Example 5, N-Pyridazin-3-yl-4-[6-[[5-(trifluoromethyl)-2-pyridinyl]oxy]-3,4-dihydro-2H-1-benzopyran-4-yl]piperazine-1-carboxamide]
7 | < 100 nM | < 100 nM | O=C(Nc1cccnc1)N1CCN(C2CCOc3cc(C(F)(F)F)ccc32)CC1 (centres unmarked) [Example 17, N-Pyridine-3-yl-4-[7-(trifluoromethyl)-3,4-dihydro-2H-1-benzopyran-4-yl]piperazine-1-carboxamide]
8 | > 1000 nM | 100 to 1000 nM | CC1(C)CC(N2CCN(C(=O)Nc3cccnn3)CC2)c2ccc(C(F)(F)F)cc2O1 (centres unmarked) [Example 9, N-Pyridazin-3-yl-4-[2,2-dimethyl-7-(trifluoromethyl)-3,4-dihydro-2H-1-benzopyran-4-yl]piperazine-1-carboxamide]
9 | > 1000 nM | > 1000 nM | O=C(Nc1nccs1)N1CCN(C2CCOc3cc(C(F)(F)F)ccc32)CC1 (centres unmarked) [Example 22, N-(1,3-Thiazol-2-yl)-4-[7-(trifluoromethyl)-3,4-dihydro-2H-1-benzopyran-4-yl]piper azine-1-carboxamide]
10 | 100 to 1000 nM | 100 to 1000 nM | O=C(Nc1ccccc1)N1CCN(C2CCOc3cc(C(F)(F)F)ccc32)C(=O)C1 (centres unmarked) [Example 15, N-Phenyl-3-yl-4-[7-(trifluoromethyl)-3,4-dihydro-2H-1-benzopyran-4-yl]-3-oxo-piperazine-1-carboxamide]
11 | < 100 nM | 100 to 1000 nM | O=C(Nc1cccnn1)N1CCC(N2CCOc3cc(C(F)(F)F)ccc32)CC1 [Example 24, N-Pyridazin-3-yl-4-[7-(trifluoromethyl)-2,3-dihydro-1,4-benzoxazin-4-yl]piperidine-1-carboxamide]
12 | 100 to 1000 nM | < 100 nM | O=C(Nc1cccnn1)N1CCN(C2CCOc3cc(C(F)(F)F)c(F)cc32)CC1 (centres unmarked) [Example 12, N-Pyridazin-3-yl-4-[6-fluoro-7-(trifluoromethyl)-3,4-dihydro-2H-1-benzopyran-4-yl]piperazine-1-carboxamide]

Row | Molecule | IC50 (FAAH [1]) | IC50 (FAAH [2])
13 | N-(6-Methoxypyridazin-2-yl)-4-[7-(trifluoromethyl)-3,4-dihydro-2H-1-benzopyran-4-yl]piperazine-1-carboxamide [Example 21] | 100 to 1000 nM | 100 to 1000 nM

Source: US20130029978A1, “NOVEL ARYL UREA DERIVATIVE” (MOCHIDA PHARMACEUTICAL CO., LTD., priority 2009, published 2013)
